The conditions of data set [1]: cited from earlier work.
For data set [2] the following is noted: in vivo, po; cited from earlier work.
For data set [3] the following is noted: in vivo; cited from earlier work.
For data set [4] the following is noted: cited from earlier work. The source holds these as a separate data set.
The test system of a further data set is serotonin uptake. To be noted: cited from earlier work.
The test system of a further data set is norepinephrine uptake. Particulars: cited from earlier work.
Data set [5] can be described thus: relative stability of ODV succinate polymorphic forms. Format: physicochemical. Particulars: compared with the other forms of ODV succinate.

As for `CN(C)CC(c1ccc(O)cc1)C1(O)CCCCC1.O=C(O)CCC(=O)O` (centres unmarked) [ODV succinate, O-desmethyl venlafaxine (ODV) succinate], the solubility result in data set [1] is given as “high”. The “incidence of nausea, vomiting, diarrhea, abdominal pain, headache, vasovagal malaise and/or trismus” value in data set [2] is listed as “lower incidence”. In data set [3], the “absorption in the gastrointestinal tract” value is on record as “well absorbed” and the bioavailability entry is listed as “high”. In addition, the permeability entry in data set [4] is recorded as “high”.
For `CN(C)CC(c1ccc(O)cc1)C1(O)CCCCC1` (centres unmarked) [ODV, 1-[2-(dimethylamino)-1-(4-hydroxyphenyl)ethyl]cyclohexanol], in the data set on serotonin uptake, the serotonin uptake inhibition entry is listed as “inhibit”. Moreover, the norepinephrine uptake inhibition result in the data set on norepinephrine uptake was “inhibit”.
With `CN(C)CC(c1ccc(O)cc1)C1(O)CCCCC1.O=C(O)CCC(=O)O` (centres unmarked) [Form II of ODV succinate, O-desmethyl venlafaxine (ODV) succinate monohydrate], the “stability of polymorphic form” value in data set [5] is “most stable form”.

The values are drawn from patent US20100063160A1, “POLYMORPHS OF O-DESMETHYL VENLAFAXINE SUCCINATE” (priority 2006, published 2010).
